Data from the NIST ThermoML archive (doi:10.1021/je1000796).

Test: mn = molality of the nth substance listed, in mol/kg
Conditions: 101 kPa, Liquid; for viscosity: Capillary tube (Ostwald / Ubbelohde) method

COC(=O)[C@H](c1ccccc1Cl)N1CCc2sccc2C1.O=S(=O)(O)O [(S)-(+)-Clopidogrel hydrogen sulfate] + CO
Conditions	mass density [kg/m3]	viscosity [mPa·s]
278.15 K, m1 = 0.001	803.1	0.7441
278.15 K, m1 = 0.003	803.5	0.747
278.15 K, m1 = 0.005	804	0.7487
278.15 K, m1 = 0.007	804.4	0.7505
278.15 K, m1 = 0.009	804.8	0.7525
278.15 K, m1 = 0.011	805.2	0.7529
278.15 K, m1 = 0.013	805.9	0.7577
278.15 K, m1 = 0.015	806.4	0.7582
283.15 K, m1 = 0.001	799.2	0.6924
283.15 K, m1 = 0.003	799.5	0.6943
283.15 K, m1 = 0.005	800.1	0.6961
283.15 K, m1 = 0.007	800.4	0.698
283.15 K, m1 = 0.009	801.1	0.6998
283.15 K, m1 = 0.011	801.5	0.7006
283.15 K, m1 = 0.013	802	0.7039
283.15 K, m1 = 0.015	802.6	0.705
288.15 K, m1 = 0.001	795.4	0.6416
288.15 K, m1 = 0.003	795.8	0.6446
288.15 K, m1 = 0.005	796.2	0.6475
288.15 K, m1 = 0.007	796.4	0.6487
288.15 K, m1 = 0.009	797.1	0.6494
288.15 K, m1 = 0.011	797.5	0.6502
288.15 K, m1 = 0.013	798.2	0.6527
288.15 K, m1 = 0.015	799	0.6538
293.15 K, m1 = 0.001	792.3	0.6006
293.15 K, m1 = 0.003	792.5	0.6022
293.15 K, m1 = 0.005	792.9	0.6042
293.15 K, m1 = 0.007	793.3	0.6049
293.15 K, m1 = 0.009	793.6	0.606
293.15 K, m1 = 0.011	794	0.6077
293.15 K, m1 = 0.013	794.5	0.6096
293.15 K, m1 = 0.015	795.3	0.6111
298.15 K, m1 = 0.001	788.1	0.5596
298.15 K, m1 = 0.003	788.2	0.562
298.15 K, m1 = 0.005	788.4	0.5631
298.15 K, m1 = 0.007	788.7	0.5638
298.15 K, m1 = 0.009	789	0.5652
298.15 K, m1 = 0.011	789.3	0.5661
298.15 K, m1 = 0.013	790	0.5684
298.15 K, m1 = 0.015	790.8	0.5694
303.15 K, m1 = 0.001	784	0.5212
303.15 K, m1 = 0.003	784.1	0.5236
303.15 K, m1 = 0.005	784.3	0.5254
303.15 K, m1 = 0.007	784.5	0.5262
303.15 K, m1 = 0.009	785	0.5269
303.15 K, m1 = 0.011	785.3	0.5276
303.15 K, m1 = 0.013	785.8	0.5304
303.15 K, m1 = 0.015	786.6	0.5315
308.15 K, m1 = 0.001	779.7	0.487
308.15 K, m1 = 0.003	779.8	0.4898
308.15 K, m1 = 0.005	780	0.4901
308.15 K, m1 = 0.007	780.3	0.4906
308.15 K, m1 = 0.009	780.7	0.4919
308.15 K, m1 = 0.011	781.1	0.4936
308.15 K, m1 = 0.013	781.5	0.4943
308.15 K, m1 = 0.015	782.3	0.4967
313.15 K, m1 = 0.001	775.3	0.4567
313.15 K, m1 = 0.003	775.5	0.4589
313.15 K, m1 = 0.005	775.7	0.4595
313.15 K, m1 = 0.007	775.9	0.4601
313.15 K, m1 = 0.009	776	0.4604
313.15 K, m1 = 0.011	776.4	0.462
313.15 K, m1 = 0.013	777	0.4631
313.15 K, m1 = 0.015	777.8	0.4647
